Measured values: US9827219B2, “Compositions and methods for lowering levels of high-sensitivity C-reactive protein (HS-CRP) in a subject” (priority 2012, dated 2017)

How the values were obtained:
Type in all cases: in vivo, human
[1] = test system: Lp-PLA2; assay: MARINE study, Lp-PLA2; conditions: MARINE ITT; 2 g/day; week 12
From the text: Parameters (a)-(y) can be measured in accordance with any clinically acceptable methodology. For example, triglycerides, total cholesterol, HDL-C and fasting blood sugar can be sample from serum and analyzed using standard photometry techniques. VLDL-TG, LDL-C and VLDL-C can be calculated or determined using serum lipoprotein fractionation by preparative ultracentrifugation and subsequent quantitative analysis by refractometry or by analytic ultracentrifugal methodology. Apo A1, Apo B and hsCRP can be determined from serum using standard nephelometry techniques. Lipoprotein (a) can be determined from serum using standard turbidimetric immunoassay techniques. LDL particle number and particle size can be determined using nuclear magnetic resonance (NMR) spectrometry. Remnants lipoproteins and LDL-phospholipase A2 can be determined from EDTA plasma or serum and serum, respectively, using enzymatic immunoseparation techniques. Oxidized LDL, intercellular adhesion molecule-1 and interleukin-2 levels can be determined from serum using standard enzyme immunoassay techniques. These techniques are described in detail in standard textbooks, for example Tietz Fundamentals of Clinical Chemistry, 6th Ed. (Burtis, Ashwood and Borter Eds.), WB Saunders Company. […]

[2] = test system: ICAM-1; assay: ANCHOR study (fasting TG ≧200 and <500 mg/dl despite statin), ICAM-1; conditions: ANCHOR ITT, week 12
From the text: Parameters (a)-(y) can be measured in accordance with any clinically acceptable methodology. For example, triglycerides, total cholesterol, HDL-C and fasting blood sugar can be sample from serum and analyzed using standard photometry techniques. VLDL-TG, LDL-C and VLDL-C can be calculated or determined using serum lipoprotein fractionation by preparative ultracentrifugation and subsequent quantitative analysis by refractometry or by analytic ultracentrifugal methodology. Apo A1, Apo B and hsCRP can be determined from serum using standard nephelometry techniques. Lipoprotein (a) can be determined from serum using standard turbidimetric immunoassay techniques. LDL particle number and particle size can be determined using nuclear magnetic resonance (NMR) spectrometry. Remnants lipoproteins and LDL-phospholipase A2 can be determined from EDTA plasma or serum and serum, respectively, using enzymatic immunoseparation techniques. Oxidized LDL, intercellular adhesion molecule-1 and interleukin-2 levels can be determined from serum using standard enzyme immunoassay techniques. These techniques are described in detail in standard textbooks, for example Tietz Fundamentals of Clinical Chemistry, 6th Ed. (Burtis, Ashwood and Borter Eds.), WB Saunders Company.
A multi-center, placebo-controlled, randomized, double-blind, 12-week study was performed to evaluate the efficacy and safety of >96% E-EPA in patients with fasting triglyceride levels ≧200 mg/dl and <500 mg/dl despite statin therapy (the mean of two qualifying entry values needed to be ≧185 mg/dl and at least one of the values needs to be ≧200 mg/dl). The primary objective of the study was to determine the efficacy of >96% E-EPA 2 g daily and 4 g daily, compared to placebo, in lowering fasting TG levels in patients with high risk for cardiovascular disease and with fasting TG levels ≧200 mg/dL and <500 mg/dL, despite treatment to LDL-C goal on statin therapy. […]

[3] = Safety and tolerability (adverse events), AAMI pilot study (Example 1); conditions: for TEAE Probably Related to the study drug: one subject
Protocol: All randomized subjects that received at least 1 dose of study medication were included in the Safety Population.
Safety evaluations were based on the safety population. Safety and tolerability were assessed in terms of AEs, vital signs, 12-lead ECG, clinical laboratory data, medical history, and study drug compliance. Safety and tolerability data were presented by treatment group.

SMILES: CC/C=C\C/C=C\C/C=C\C/C=C\C/C=C\CCCC(=O)OCC [AMR101, all-cis eicosa-5,8,11,14,17-pentaenoic acid ethyl ester]
- Lp-PLA2 change from baseline (median) [1]: −5.1%
- ICAM-1 change from baseline (median) ([2]; 2 g/day): 0.5%
- ICAM-1 change from baseline (median) ([2]; 4 g/day): 0.8%
- ICAM-1 end-of-treatment value (median) ([2]; 4 g/day): 270.0 ng/mL
- Subjects with nausea Possibly Related to the study drug ([3]; 1 g cohort): two
- TEAE Probably Related to the study drug ([3]; 1 g): nausea
- Subjects with nausea Possibly Related to the study drug ([3]; 2 g cohort): one
- SAE reported ([3]; 2 g treatment group): One
- Subjects discontinued due to TEAEs ([3]; 2 g treatment group): 2 subjects
- Subjects with nausea Possibly Related to the study drug ([3]; 4 g cohort): two
- TEAE Probably Related to the study drug ([3]; 4 g): diarrhea
- Deaths during the study ([3]; all groups): no deaths
- TEAEs Definitely Related to the study drug ([3]; all groups): No TEAEs were Definitely Related
- Treatment emergent AEs (TEAEs) reported ([3]; ethyl-EPA treatment groups (1, 2, 4 g), 6 weeks, placebo groups 34 events): 105 events
- Relatedness of the SAE (worsening epigastric chest pain) ([3]; one subject receiving 2 g): unrelated to the study drug
- Severity and relatedness of most TEAEs ([3]; whole study): mild in severity and unrelated to study drug
